Assay results reported in US6734204B1, “Serotonin potentiation by oleamide analogs” (The Scripps Research Institute, priority 1998, dated 2004).
“Also recorded” adds a separate entry of the source. Like-named read-outs stand apart in the source and are kept apart here.

Assays:
[1] = target: T1, rat 5-HT2A receptor (Rattus norvegicus, UniProt P14842); experiment: R-SAT assay, NIH 3T3 cells expressing the rat 5-HT2A receptor, β-galactosidase readout; type: cell-based; conditions: agent 500 nM, 100 nM 5-HT, compared with oleamide
T1 construct: host or cells: NIH 3T3 cells, cotransfected with the beta-galactosidase gene
T1 sequence (P14842 whole entry): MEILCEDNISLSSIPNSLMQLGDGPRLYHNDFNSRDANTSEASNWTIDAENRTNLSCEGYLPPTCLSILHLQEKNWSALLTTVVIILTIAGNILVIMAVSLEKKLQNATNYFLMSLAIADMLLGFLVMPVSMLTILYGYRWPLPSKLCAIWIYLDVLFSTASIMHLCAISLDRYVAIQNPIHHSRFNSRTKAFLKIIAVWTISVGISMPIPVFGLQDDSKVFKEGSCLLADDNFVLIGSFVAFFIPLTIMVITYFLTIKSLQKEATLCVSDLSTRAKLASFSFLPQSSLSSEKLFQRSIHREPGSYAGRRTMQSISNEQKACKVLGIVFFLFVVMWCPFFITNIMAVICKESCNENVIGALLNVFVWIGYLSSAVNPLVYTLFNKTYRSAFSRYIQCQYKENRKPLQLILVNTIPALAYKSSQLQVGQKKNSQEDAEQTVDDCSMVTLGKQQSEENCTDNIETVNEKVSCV
Description: (§1) Activation of the 5-HT2A or 5-HT1A receptors in 5-HT dependent cell lines results in cell prolification measured by the levels of -galactosidase produced.
(§2) An extensive series of agents was tested at 500 nM for their ability to potentiate the rat 5-HT2A or human 5-HT1A receptor response to 100 nM 5-HT. […] The analog screening was conducted with the rat 5-HT2A assay and a subset of analogs was also examined in the human 5-HT1A assay. The results reported are normalized to a 100% potentiation by oleamide for the ease of direct comparisons.
(§3) Methods. The assays were conducted with R-SAT kits (Receptor Technologies Inc, Winooski, Vt.) containing NIH 3T3 cells expressing the rat 5-HT2A receptor (Suter et al. (1987) Fundam. Appl. Toxicol. 9, 785-794; Pritchett et al. (1988) EMBO J 7, 4135-4140) or RAT-1 cells expressing the human 5-HT1A receptor (Lam et al. (1996) Biochem. Biophys. Res. Commun. 219, 853-858; Kobilka et al. (1987) Nature 329, 75-79) cotransfected with the -galactosidase gene and were performed according to the procedures provided (Messier et al. (1995) Pharmacol. Toxicol. 76, 308-311; Brann et al. (1996) J. Biomol. Screening 1, 43-45). The cells in Dulbecco modified Eagle's medium containing serotonin (100 nM) and the analogs (500 nM) were incubated in a humidified 5% CO2 incubator at 37° C. for 4 or 5 days for the 5-HT2A and 5-HT1A transfected cells, respectively. Levels of -galactosidase were measured after incubation with the chromogenic substrate o-nitrophenyl- -D-galactopyranoside (20) at 30° C. in a humidified incubator for a recommended period of time and the absorbance was measured at 405 nm. The results were normalized to 100% for oleamide (rel. % potentiation) for the ease of comparison and are the average of 2-8 determinations.

[2] = target: T2, human 5-HT1A receptor (Homo sapiens, UniProt P08908); experiment: R-SAT assay, RAT-1 cells expressing the human 5-HT1A receptor, β-galactosidase readout; type: cell-based; conditions: agent 500 nM, 100 nM 5-HT, compared with oleamide
T2 construct: host or cells: RAT-1 cells, cotransfected with the beta-galactosidase gene
T2 sequence (P08908 1-422): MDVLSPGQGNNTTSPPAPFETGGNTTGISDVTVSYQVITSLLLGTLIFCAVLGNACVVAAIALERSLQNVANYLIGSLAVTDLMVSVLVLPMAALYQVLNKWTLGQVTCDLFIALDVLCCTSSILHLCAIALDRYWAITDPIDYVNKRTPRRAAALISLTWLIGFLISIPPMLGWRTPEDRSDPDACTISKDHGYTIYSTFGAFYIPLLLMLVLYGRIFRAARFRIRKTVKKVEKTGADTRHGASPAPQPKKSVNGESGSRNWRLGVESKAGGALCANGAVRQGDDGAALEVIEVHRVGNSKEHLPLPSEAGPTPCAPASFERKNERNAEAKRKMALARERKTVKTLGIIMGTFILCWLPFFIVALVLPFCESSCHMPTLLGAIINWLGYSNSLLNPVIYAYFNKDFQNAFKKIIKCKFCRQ
Description: as §1, §2, §3

[3] = target: T3, 5-HT2A receptor (Homo sapiens, UniProt P28223); conditions: 100 nM serotonin, 100 nM oleamide; Huidobro-Toro et al. 1996; cited from earlier work
T3 construct: host or cells: frog oocytes, transfected
T3 sequence (P28223 whole entry): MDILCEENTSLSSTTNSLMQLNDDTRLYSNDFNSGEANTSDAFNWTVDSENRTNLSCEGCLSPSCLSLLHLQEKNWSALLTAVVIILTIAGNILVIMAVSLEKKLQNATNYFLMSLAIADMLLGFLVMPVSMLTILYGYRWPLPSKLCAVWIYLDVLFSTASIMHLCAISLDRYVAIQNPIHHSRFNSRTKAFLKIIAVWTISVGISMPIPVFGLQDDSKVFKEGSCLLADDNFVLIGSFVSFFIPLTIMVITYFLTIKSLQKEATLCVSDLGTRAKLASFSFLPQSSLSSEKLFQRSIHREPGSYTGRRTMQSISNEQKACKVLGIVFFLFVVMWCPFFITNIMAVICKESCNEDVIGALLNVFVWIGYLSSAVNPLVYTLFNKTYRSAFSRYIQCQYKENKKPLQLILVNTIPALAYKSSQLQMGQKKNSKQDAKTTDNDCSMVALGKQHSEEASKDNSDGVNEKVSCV

[4] = target: T4, 5-HT7 receptor (Homo sapiens, UniProt P34969); conditions: cited from earlier work
T4 construct: host or cells: HeLa cells, transfected
T4 sequence (P34969 whole entry): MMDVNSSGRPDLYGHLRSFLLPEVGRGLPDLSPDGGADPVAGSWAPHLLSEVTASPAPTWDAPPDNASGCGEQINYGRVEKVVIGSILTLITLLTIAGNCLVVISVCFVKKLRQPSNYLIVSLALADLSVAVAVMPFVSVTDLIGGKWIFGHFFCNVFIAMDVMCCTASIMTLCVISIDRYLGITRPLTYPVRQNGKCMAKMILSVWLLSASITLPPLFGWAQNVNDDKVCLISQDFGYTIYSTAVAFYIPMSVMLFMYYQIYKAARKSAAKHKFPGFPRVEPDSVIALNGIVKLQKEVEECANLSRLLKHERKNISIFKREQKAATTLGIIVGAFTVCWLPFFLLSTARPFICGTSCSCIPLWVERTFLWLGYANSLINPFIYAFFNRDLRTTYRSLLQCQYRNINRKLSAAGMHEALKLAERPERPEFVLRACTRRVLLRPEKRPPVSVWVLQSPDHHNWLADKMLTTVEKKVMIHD

[5] = target: T5, 5-HT3 ion-gated channel receptor (Homo sapiens, UniProt P46098); conditions: 100 nM serotonin, 100 nM oleamide; cited from earlier work
T5 construct: host or cells: frog oocytes, transfected
T5 sequence (P46098 24-478): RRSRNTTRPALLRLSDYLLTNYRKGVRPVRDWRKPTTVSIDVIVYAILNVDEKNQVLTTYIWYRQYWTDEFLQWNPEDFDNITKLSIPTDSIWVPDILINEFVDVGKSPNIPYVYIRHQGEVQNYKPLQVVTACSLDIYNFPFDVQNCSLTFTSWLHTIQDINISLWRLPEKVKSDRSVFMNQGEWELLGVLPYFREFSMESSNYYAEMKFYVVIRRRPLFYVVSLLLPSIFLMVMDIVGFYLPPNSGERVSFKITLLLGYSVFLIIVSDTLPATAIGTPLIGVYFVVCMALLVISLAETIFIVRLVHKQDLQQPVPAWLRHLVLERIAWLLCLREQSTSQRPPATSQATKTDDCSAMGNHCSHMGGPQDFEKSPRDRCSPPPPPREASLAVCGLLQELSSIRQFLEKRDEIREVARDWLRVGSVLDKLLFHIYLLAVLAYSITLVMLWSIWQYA

[6] = target: T6, 5-HT2C receptor (Homo sapiens, UniProt P28335); conditions: cited from earlier work
T6 construct: host or cells: frog oocytes, transfected
T6 sequence (P28335 33-458): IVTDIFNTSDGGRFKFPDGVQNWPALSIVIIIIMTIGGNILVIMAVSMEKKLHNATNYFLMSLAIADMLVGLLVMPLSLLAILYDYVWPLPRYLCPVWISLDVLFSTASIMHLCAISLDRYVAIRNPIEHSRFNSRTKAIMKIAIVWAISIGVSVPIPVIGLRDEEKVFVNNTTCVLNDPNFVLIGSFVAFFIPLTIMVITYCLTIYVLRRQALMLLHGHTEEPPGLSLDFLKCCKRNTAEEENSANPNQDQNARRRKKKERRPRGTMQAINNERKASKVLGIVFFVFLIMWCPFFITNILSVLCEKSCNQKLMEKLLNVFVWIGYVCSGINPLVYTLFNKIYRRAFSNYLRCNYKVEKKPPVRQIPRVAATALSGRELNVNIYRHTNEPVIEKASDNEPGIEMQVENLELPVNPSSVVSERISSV

[7] = target: T1, rat 5-HT2A receptor; experiment: R-SAT assay, NIH 3T3 cells expressing the rat 5-HT2A receptor, β-galactosidase readout; type: cell-based; conditions: for potentiation response: 100 nM oleamide
[8] = target: T7, 5-HT2A receptors (Rattus norvegicus, UniProt P14842); conditions: 100 nM serotonin, 100 nM oleamide; Thomas et al. 1997; cited from earlier work
T7 construct: rat pituitary P11 cells expressing the 5-HT2 receptor; endogenous in cells; host or cells: rat pituitary P11 cells
T7 sequence (P14842 whole entry): as the sequence (P14842 whole entry) above

[9] = target: T2, human 5-HT1A receptor; experiment: R-SAT assay, RAT-1 cells expressing the human 5-HT1A receptor, β-galactosidase readout; type: cell-based; conditions: for potentiation: 100 nM 5-HT
[10] = test system: FAAH; conditions: cited from earlier work

SMILES | potentiation of the 5-HT2A receptor response (in words) [1] | potentiation of the 5-HT1A receptor response (in words) [2] | further results
CCCCCCCCC=CCCCCCCCC(=O)N(C)C [NMe2 tertiary amide] | maximum effect | – | –
CCCCCCCC/C=C\CCCCCCCC(=O)NCC(=O)O [N-oleyl glycine, N-Oleoyl glycine] | – | weak potentiator | –
CCCCC/C=C\C/C=C\CCCCCCCC(N)=O [18:2^9,12, Linoleamide] | – | approaching the potency of oleamide | –
CCCCCCCC/C=C\CCCCCCCC(=O)NCCCO [oleyl propanolamide] | – | equally effective | –
CCCCCCCC/C=C\CCCCCCCC(N)=O [oleamide, cis-9-ocatadecenamide] | most effective | – | potentiation of 5-HT2A [3]: 260%; action at the 5-HT7 receptor ([4]; alone): weak agonist; action at the 5-HT7 receptor ([4]; in the presence of serotonin): unsurmountable antagonist; effect on 5-HT3 receptor [5]: no effect; potentiation of 5-HT2C ([6]; 100 nM serotonin, 100 nM oleamide): 365%; concentration of maximal potentiation [6]: 100 nM; lowest concentration at which potentiation was observed [6]: 1 nM; potentiation response ([7]; 100 nM 5-HT): 165%; potentiation response ([7]; 1 μM 5-HT): 170%; potentiation at higher concentration ([7]; 1 μM oleamide): no additional potentiation; concentration giving maximal response ([7]; assayed at 100 nM or 1 μM 5-HT): 100 nM; effect of treatment alone ([7]; without 5-HT): no effect; potentiation of 5-HT2A [8]: 228%; potentiation ([9]; 100 nM oleamide): 370%; potentiation ([9]; 1 μM oleamide): 560%; lowest concentrations producing a measurable effect ([9]; with 5-HT): 1 to 10 nM; effect of treatment alone ([9]; without 5-HT): no effect
CCCCCCCCCCCCCCCCCC(N)=O [18:0, stearamide] | no observable potentiation; also recorded: ineffective at potentiating | less effective than oleamide, albeit not inactive | –
CCCCCC/C=C\CCCCCCCC(N)=O [16:1^9, Palmitoleamide] | – | approaching the potency of oleamide | –
CCCCC/C=C\C/C=C\C/C=C\C/C=C\CCCC(N)=O [Arachidonamide] | ineffective | – | potentiation of the 5-HT2A receptor response (in words) ([1]; listed as arachidonamide): less active or ineffective
CCCCCCCC/C=C\CCCCCCCC=O [oleyl aldehyde] | – | – | inhibition of FAAH (in words) [10]: potent inhibitors
CCCCC/C=C\C/C=C\C/C=C\C/C=C\CCCC(=O)NCCO [anandamide, reference compound] | weakly inhibitory; also recorded: less active or ineffective | found to potentiate | –
CCCCCCCC/C=C\CCCCCCC(C)(C)C(N)=O [2,2-dimethyloleamide] | potent inhibitors | – | –
CCCCCCCC/C=C\CCCCCCCC(=O)NC1CC1 [cyclopropyl amide] | uniquely effective at inhibiting; also recorded: inactive or inhibitory | effective at potentiating | –
CCCC/C=C\CCCCCCCC(N)=O [14:1^9, Myristoleamide] | – | more effective on the 5-HT1A receptor than 5-HT2A | –
CCCCCCCC/C=C/CCCCCCCC(N)=O [18:1^9-trans, Elaidamide] | no observable potentiation; also recorded: ineffective at potentiating | less effective than oleamide, albeit not inactive | –
CCCCCCCC/C=C\CCCCCCCC(=O)O [oleic acid, Oleic acid, reference compound] | did not provide a comparable potentiation | better tolerated | –
CC/C=C\C/C=C\C/C=C\CCCCCCCC(N)=O [18:3^6,9,12, linolenamide] | more effective but still less potent | – | –
CCCCCCCCCCCCCC/C=C\CCCC(N)=O [20:1^5] | – | – | potentiation of the 5-HT2A receptor response (in words) ([1]; listed as 20:1^9): inactivity; potentiation of the 5-HT2A receptor response (in words) ([1]; listed as 20:1^13): modest activity
CCCCCCCCC=CCCCCCCCC(=O)NC(C)C [isopropyl amide] | inactive or inhibitory | effective at potentiating | –
CCCCCCCC/C=C\CCCCCCCCCCCCCC(N)=O [24:1^9, Nervonamide] | modest activity | – | –
CCCCCCCC/C=C\CCCCCCCCOCC(CO)OC(C)=O (stereo not drawn) [1-oleyl-2-acetylglycerol] | weakly inhibited | – | –
CCCCCCCCC#CCCCCCCCC(N)=O [Compound 2, 9-octadecynamide] | nearly equipotent with oleamide | – | –
CCCCCCCC/C=C\CCCCCCCC(=O)NCCO [oleyl ethanolamide] | less active or ineffective | found to potentiate | –
